Experimental data as given in US20100004250A1, “PTERIDINE DERIVATIVES AS POLO-LIKE KINASE INHIBITORS USEFUL IN THE TREATMENT OF CANCER” (CHROMA THERAPEUTICS LTD., priority 2006, published 2010).

Experiments:
[1] = test system: HCT 116 cell line; assay: Cell inhibition assay (WST-1 proliferation); format: cell-based; conditions: Homo sapiens, 120 hrs incubation, read-out: Inhibitor Activity vs HCT 116 cell line
Experimental: Cells were seeded in 96W tissue culture plates (1 well=30 mm^2) at a density of 500 cells per well in 50 μl of the appropriate culture medium (see below). 24 hrs later 50 μl of the compound prepared in the same medium was added as 4 fold dilutions to give final concentrations in the range 0.15 nM-2500 nM (n=6 for each concentration). The plates were then incubated at 37° C., 5% CO2 for 120 hrs. Cell proliferation was assessed using WST-1 (a metabolic indicator dye, Roche Cat no. 1 644 807) according to the manufacturers instructions. The results were calculated as percentage of vehicle response and IC50 values represent the concentration of compound that inhibited the vehicle response by 50%.
HCT-116 Culture Medium—Dulbeccos MEM (Sigma D6546) plus 10% heat inactivated fetal calf serum (Hyclone SH30071 Thermo Fischer Scientific) containing 2 mM Glutamine (Sigma cat no G-7513) and 50 U/ml Penicillin and Streptomycin Sulphate (Sigma Cat no P-0781).

[2] = target: T1, PLK1 (Homo sapiens, UniProt P53350); assay: PLK1 enzyme assay (Z'-LYTE, Invitrogen); format: biochemical; conditions: ATP at or close to Km, 60 minute kinase reaction; read-out: Inhibitor Activity vs PLK1
T1 construct: purchased Invitrogen (Paisley, UK), assay service
T1 sequence (P53350 whole entry): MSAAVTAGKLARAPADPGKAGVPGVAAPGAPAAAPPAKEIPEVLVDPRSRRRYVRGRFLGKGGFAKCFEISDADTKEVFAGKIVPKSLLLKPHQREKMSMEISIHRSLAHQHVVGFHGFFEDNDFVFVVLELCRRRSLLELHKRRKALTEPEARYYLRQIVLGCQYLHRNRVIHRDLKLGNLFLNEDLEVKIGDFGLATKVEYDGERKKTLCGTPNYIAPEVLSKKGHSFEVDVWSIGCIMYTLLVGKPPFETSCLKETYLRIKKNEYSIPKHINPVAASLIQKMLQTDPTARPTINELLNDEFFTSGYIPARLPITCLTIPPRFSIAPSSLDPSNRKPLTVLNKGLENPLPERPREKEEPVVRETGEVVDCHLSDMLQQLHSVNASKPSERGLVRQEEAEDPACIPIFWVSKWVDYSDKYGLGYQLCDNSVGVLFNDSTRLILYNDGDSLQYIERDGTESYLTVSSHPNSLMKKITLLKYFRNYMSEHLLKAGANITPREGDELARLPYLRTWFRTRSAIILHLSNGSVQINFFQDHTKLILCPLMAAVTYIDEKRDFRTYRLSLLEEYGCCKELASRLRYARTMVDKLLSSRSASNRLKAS
Experimental: The ability of compounds to inhibit PLK-1 kinase activity was measured in an assay performed by Invitrogen (Paisley, UK). The Z′-LYTE™ biochemical assay employs a fluorescence-based, coupled-enzyme format and is based on the differential sensitivity of phosphorylated and non-phosphorylated peptides to proteolytic cleavage. The peptide substrate is labelled with two fluorophores—one at each end—that make up a FRET pair. In the primary reaction, the kinase transfers the gamma-phosphate of ATP to a single serine or threonine residue in a synthetic FRET-peptide. In the secondary reaction, a site-specific protease recognizes and cleaves non-phosphorylated FRET-peptides. Phosphorylation of FRET-peptides suppresses cleavage by the Development Reagent. Cleavage disrupts FRET between the donor (i.e., coumarin) and acceptor (i.e., fluorescein) fluorophores on the FRET-peptide, whereas uncleaved, phosphorylated FRET-peptides maintain FRET. A […] method, which calculates the ratio (the Emission Ratio) of donor emission to acceptor emission after excitation of the donor fluorophore at 400 nm, is used to quantitate reaction progress.
The final 10 μl Kinase Reaction consists of 2.8-25.3 ng PLK1, 2 μM Ser/Thr 16 Peptide substrate and ATP in 50 mM HEPES pH 7.5, 0.01% BRIJ-35, 10 mM MgCl2, 1 mM EGTA. The assay is performed at an ATP concentration at, or close to, the Km. After the 60 minute Kinase Reaction incubation at room temperature, 5 μl of a 1:8 dilution of Development Reagent is added. The assay plate is incubated for a further 60 minutes at room temperature and read on a fluorescence plate reader.
Duplicate data points are generated from a ⅓ log dilution series of a stock solution of test compound in DMSO. Nine dilutions steps are made from a top concentration of 10 μM, and a “no compound” blank is included. Data is collected and analysed using XLfit software from IDBS. The dose response curve is curve fitted to model number 205 (sigmoidal dose-response model). From the curve generated, the concentration giving 50% inhibition is determined and reported.

IC50 [1] [nM]	IC50 [2] [nM]	SMILES
< 100	< 100	CC[C@@H]1C(=O)N(C)c2cnc(Nc3ccc(C(=O)NC4CCN(CCCCC(=O)N[C@@H](CC(C)C)C(=O)OC5CCCC5)CC4)cc3OC)nc2N1C1CCCC1 [Example 6, Cyclopentyl N-(5-{4-[(4-{[(7R)-8-cyclopentyl-7-ethyl-5-methyl-6-oxo-5,6,7,8-tetrahydropteridin-2-yl]amino}-3-methoxybenzoyl)amino]piperidin-1-yl}pentanoyl)-L-leucinate]
< 100	100 to 500	CC[C@@H]1C(=O)N(C)c2cnc(Nc3ccc(C(=O)NC4CCN(CC(=O)N[C@@H](CC(C)C)C(=O)OC5CCCC5)CC4)cc3OC)nc2N1C1CCCC1 [Example 7, Cyclopentyl N-({4-[(4-{[(7R)-8-cyclopentyl-7-ethyl-5-methyl-6-oxo-5,6,7,8-tetrahydropteridin-2-yl]amino}-3-methoxybenzoyl)amino]piperidin-1-yl}acetyl)-L-leucinate]
< 100	< 100	CC[C@@H]1C(=O)N(C)c2cnc(Nc3ccc(C(=O)NC4CCN(CCNC(=O)N[C@@H](CC(C)C)C(=O)OC5CCCC5)CC4)cc3OC)nc2N1C1CCCC1 [Example 8, Cyclopentyl N-[(2-{4-[(4-{[(7R)-8-cyclopentyl-7-ethyl-5-methyl-6-oxo-5,6,7,8-tetrahydropteridin-2-yl]amino}-3-methoxybenzoyl)amino]piperidin-1-yl}ethyl)carbamoyl]-L-leucinate]
< 100	< 100	CC[C@@H]1C(=O)N(C)c2cnc(Nc3ccc(C(=O)NC4CCN(CCOC(=O)N[C@@H](CC(C)C)C(=O)OC5CCCC5)CC4)cc3OC)nc2N1C1CCCC1 [Example 11, Cyclopentyl N-[(2-{4-[(4-{[(7R)-8-cyclopentyl-7-ethyl-5-methyl-6-oxo-5,6,7,8-tetrahydropteridin-2-yl]amino}-3-methoxybenzoyl)amino]piperidin-1-yl}ethoxy)carbonyl]-L-leucinate]
100 to 500	100 to 500	CC[C@@H]1C(=O)N(C)c2cnc(Nc3ccc(C(=O)NCCCC(=O)N[C@@H](CC(C)C)C(=O)OC4CCCC4)cc3OC)nc2N1C1CCCC1 [Example 13, Cyclopentyl N-{4-[(4-{[(7R)-8-cyclopentyl-7-ethyl-5-methyl-6-oxo-5,6,7,8-tetrahydropteridin-2-yl]amino}-3-methoxybenzoyl)amino]butanoyl}-L-leucinate]
< 100	< 100	CC[C@@H]1C(=O)N(C)c2cnc(Nc3ccc(C(=O)N[C@H]4CC[C@@H](CCC(=O)N[C@@H](CC(C)C)C(=O)OC5CCCC5)CC4)cc3OC)nc2N1C1CCCC1 [Example 17, Cyclopentyl N-(3-{cis-4-[(4-{[(7R)-8-cyclopentyl-7-ethyl-5-methyl-6-oxo-5,6,7,8-tetrahydropteridin-2-yl]amino}-3-methoxybenzoyl)amino]cyclohexyl}propanoyl)-L-leucinate]

Second part, the compound before the results:

SMILES	IC50 [1] [nM]	IC50 [2] [nM]
CC[C@@H]1C(=O)N(C)c2cnc(Nc3ccc(C(=O)NC4CCN(CCCC(=O)N[C@@H](C(=O)OC5CCCC5)c5ccccc5)CC4)cc3OC)nc2N1C1CCCC1 [Example 4, Cyclopentyl (2R)-[(4-{4-[(4-{[(7R)-8-cyclopentyl-7-ethyl-5-methyl-6-oxo-5,6,7,8-tetrahydropteridin-2-yl]amino}-3-methoxybenzoyl)amino]piperidin-1-yl}butanoyl)amino](phenyl)acetate]	< 100	< 100
CC[C@@H]1C(=O)N(C)c2cnc(Nc3ccc(C(=O)NC4CCN(CCCC(=O)N[C@@H](C(=O)OC5CCCC5)C5CCCCC5)CC4)cc3OC)nc2N1C1CCCC1 [Example 5, Cyclopentyl (2R)-cyclohexyl [(4-{4-[(4-{[(7R)-8-cyclopentyl-7-ethyl-5-methyl-6-oxo-5,6,7,8-tetrahydropteridin-2-yl]amino}-3-methoxybenzoyl)amino]piperidin-1-yl}butanoyl)amino]acetate]	> 500	100 to 500
CC[C@@H]1C(=O)N(C)c2cnc(Nc3ccc(C(=O)NC4CCN(CCNC(=O)N[C@H](C(=O)OC5CCCC5)c5ccccc5)CC4)cc3OC)nc2N1C1CCCC1 [Example 9, Cyclopentyl (2S)-{[(2-{4-[(4-{[(7R)-8-cyclopentyl-7-ethyl-5-methyl-6-oxo-5,6,7,8-tetrahydropteridin-2-yl]amino}-3-methoxybenzoyl)amino]piperidin-1-yl}ethyl)carbamoyl]amino}(phenyl)acetate]	< 100	< 100
CC[C@@H]1C(=O)N(C)c2cnc(Nc3ccc(C(=O)NC4CCN(CCNC(=O)N[C@H](C(=O)OC5CCCC5)C5CCCCC5)CC4)cc3OC)nc2N1C1CCCC1 [Example 10, Cyclopentyl (2S)-cyclohexyl{[(2-{4-[(4-{[(7R)-8-cyclopentyl-7-ethyl-5-methyl-6-oxo-5,6,7,8-tetrahydropteridin-2-yl]amino}-3-methoxybenzoyl)amino]piperidin-1-yl}ethyl)carbamoyl]amino}acetate]	< 100	100 to 500
CC[C@@H]1C(=O)N(C)c2cnc(Nc3ccc(C(=O)Nc4ccc(CCCC(=O)N[C@@H](CC(C)C)C(=O)OC5CCCC5)cc4)cc3OC)nc2N1C1CCCC1 [Example 12, Cyclopentyl N-(4-{4-[(4-{[(7R)-8-cyclopentyl-7-ethyl-5-methyl-6-oxo-5,6,7,8-tetrahydropteridin-2-yl]amino}-3-methoxybenzoyl)amino]phenyl}butanoyl)-L-leucinate]	< 100	100 to 500
CC[C@@H]1C(=O)N(C)c2cnc(Nc3ccc(/C=C/CCCC(=O)N[C@@H](CC(C)C)C(=O)OC4CCCC4)cc3F)nc2N1C1CCCC1 [Example 14, Cyclopentyl N-[(5E)-6-(4-{[(7R)-8-cyclopentyl-7-ethyl-5-methyl-6-oxo-5,6,7,8-tetrahydropteridin-2-yl]amino}-3-fluorophenyl)hex-5-enoyl]-L-leucinate]	> 500	100 to 500
CC[C@@H]1C(=O)N(C)c2cnc(Nc3ccc(CCCCCC(=O)N[C@@H](CC(C)C)C(=O)OC4CCCC4)cc3F)nc2N1C1CCCC1 [Example 15, Cyclopentyl N-[6-(4-{[(7R)-8-cyclopentyl-7-ethyl-5-methyl-6-oxo-5,6,7,8-tetrahydropteridin-2-yl]amino}-3-fluorophenyl)hexanoyl]-L-leucinate]	> 500	> 500
CC[C@@H]1C(=O)N(C)c2cnc(Nc3c(F)cc(/C=C/CCCC(=O)N[C@@H](CC(C)C)C(=O)OC4CCCC4)cc3F)nc2N1C1CCCC1 [Example 16, Cyclopentyl N-[(5E)-6-(4-{[(7R)-8-cyclopentyl-7-ethyl-5-methyl-6-oxo-5,6,7,8-tetrahydropteridin-2-yl]amino}-3,5-difluorophenyl)hex-5-enoyl]-L-leucinate]	> 500	100 to 500
